Assay results taken from patent US20090209620A1, “Direct Reversal Of The Suppressive Function Of CD4+Regulatory T Cells Via Toll-Like Receptor 8 Signaling” (priority 2005, published 2009).
In the oligonucleotide strings, read from the 5' end, every base follows the letter of its sugar. An asterisk marks phosphorothioate; unmarked linkages are phosphodiester. Other units and linkages are bracketed, terminal groups are in braces. A string of capitals states the bases alone. d = 2'-deoxy (DNA)

Test system: Treg102 cells
Assay: Reversibility of siRNA-transduced Treg102 cells by Poly-G10 (functional proliferation assay)
Format: cell-based, human
Text: Several siRNA sequences (19 nucleotides) for each gene were selected with use of computer-assisted programs. Oligonucleotides containing a siRNA sequence, 8 nucleotide spacers, and a polyT terminator sequence were annealed and then cloned into the HapI and XhoI sites of GFP-expressing pLentilox3.7 vector using methods well known in the art (See, e.g., D. A. Rubinson et al., Nat. Genet. 33, 401-6 (2003)). siRNA was under the control of a U6 promoter. The following DNA sequences used to construct siRNAs for IRAK4, MyD88, and TLR7, 8 and 9, were effective in silencing their corresponding genes:
5×10^6 293T cells were pre-seeded onto 100-mm dishes and transfected with 12 μg siRNA lentiviral DNA, 12 μg VSV-G plasmid DNA and 12 μg packaging viral CMV delta 8.9 plasmid, using Lipofectamine 2000. After the addition of fresh culture medium 8 h later, the cells were cultured for an additional 2-3 days. Viral supernatants were harvested, passed through a […] filter and concentrated by ultracentrifugation at 20,000 rpm for 2 h. Virus pellets were resuspended in a small volume of medium, and viral titers were determined by infecting 293T cells with serially diluted doses of virus. For transduction of T cells, T cells (2×106 ) were first activated by OKT3 (2 ug/ml)-coated plates and then were mixed with the concentrated lentiviral supernatant with a multiplicity of infection (MOI) of 10-15 in a total volume of 0.5 ml T cell medium containing 8 ug/ml polybrene (Sigma), and then span at 1000×g for 1 h at room temperature. After 16 h of incubation, 0.5 ml of T cell medium was added to each well. Forty-eight hours later, the T cells were transduced again with the same concentrated viral supernatants. Transduction efficiency was analyzed at 3 or 4 days post-transduction, and the cells were sorted into GFP^+and GFP^−cells with a FACS ARIA sorter. The sorted cells (GFP^+and GFP^−) and untransduced Treg cells were then used to determine their reversibility by Poly-G10 in functional proliferation assays.
The current model of TLR signaling pathways predicts that TLR1, 2, 5, 6, 7, 8, and 9 use MyD88 as their sole receptor-proximal adaptor to transduce signals, TLR3 uses interferon-regulated factor 3 (IRF3) for the production of IFN-α in response to pathogen recognition, while TLR4 is linked to both MyD88-dependent and MyD88 independent pathways. Since MyD88 is important for the signaling activities of most TLRs, it stood to reason that its dependent pathway, in which IRKA4 transduces signals from MyD88 to TRAF6 and other downstream molecules, would likely be involved in TLR signaling initiated by guanosine-containing oligonucleotides. Four or five eGFP-expressing lentiviral constructs containing U6-driven siRNAs were made for each gene and were tested their abilities to specifically knock down their respective target proteins. In FIG. 3A, the efficiency of knock down by siRNA was determined by Western blot analysis. Both IRAK4 and MyD88 were tagged with a FLAG epitope, and detected by anti-FLAG antibody (M2). 293T cells transfected with either FLAG-IRAK4 or FLAG-MyD88 served as positive controls, while nontranseffected 293T cells were negative controls. The amount of β-actin in each lane served as loading controls for the samples. […] Treg102 cells were next transduced with an IRAK4 siRNAl lentivirus. After 3 days in culture, they were sorted by FACS into transduced (GFP^+) and untransduced (GFP^− control) Treg cell populations (FIG. 3B). The purity of GFP^+ and GFP^− cells was confirmed by FACS analysis. […] This notion was further supported by experiments in which Treg102 cells were transduced with MyD88 siRNAs. […] For FIG. 3C, uninfected parental Treg108 cells and Poly-T10 oligonucleotides served as controls. Data are presented as means±SD and represent results from three independent experiments. Similar results were obtained with Treg164 cell lines. […]

Substance: Poly-G10: guanosine oligonucleotide with protected phosphorothioate backbone (DNA dG*dG*dG*dG*dG*dG*dG*dG*dG*dG)
- reversibility of suppression by Poly-G10 (IRAK4 siRNA-transduced (GFP+) Treg102 cells): could not be reversed
- reversibility of suppression by Poly-G10 (MyD88 siRNA-transduced (GFP+) Treg102 cells): completely lost their ability to respond
- reversibility of suppression by Poly-G10 (TLR7 siRNA or TLR9 siRNA-transduced (GFP+) Treg cells): retained the same reversible suppressive function
- reversibility of suppression by Poly-G10 (TLR8 siRNA-transduced (GFP+) Treg102 cells): could not be reversed
- reversibility of suppression by Poly-G10 (Treg cells transduced with control siRNA virus): Neither the suppressive activity nor the reversibility of the suppression was affected
- reversibility of suppression by Poly-G10 (untransduced (GFP-) Treg102 cells): reversed as readily as the parental Treg102 cells
